Source: the supplement of paper PMC13380429

How the values were obtained:
Details in all cases: 72 h
Caco-2 [1] = experiment: cell viability relative to DMSO; higher = less toxic
Calu-3 [2] = experiment: as above
HepG2 [3] = experiment: as above
U2OS [4] = experiment: as above
Vero E6 [5] = experiment: as above
Calu-3 [6] = experiment: relative viability EC50 (midpoint between 100% and the lowest measured viability); higher = less toxic
U2OS [7] = experiment: as above
Caco-2 [8] = experiment: drug sensitivity score (DSS) for viability; higher = more toxic; extreme values may be limits of the assay
Calu-3 [9] = experiment: as above
HepG2 [10] = experiment: as above
U2OS [11] = experiment: as above
Vero E6 [12] = experiment: as above
Caco-2 [13] = experiment: relative viability EC50 (midpoint between 100% and the lowest measured viability); higher = less toxic
Vero E6 [14] = experiment: as above

C[C@H]1[C@H](OC(=O)CCC(=O)O)O[C@@H]2O[C@@]3(C)CC[C@H]4[C@H](C)CC[C@@H]1[C@@]24OO3 [artesunate]
cell viability (Caco-2 [1]; 1 nM): 102%
cell viability (Caco-2 [1]; 10 nM): 96.1%
cell viability (Caco-2 [1]; 100 nM): 98.3%
cell viability (Caco-2 [1]; 1000 nM): 98.3%
cell viability (Caco-2 [1]; 10000 nM): 73%
cell viability (Calu-3 [2]; 1 nM): 104%
cell viability (Calu-3 [2]; 10 nM): 98.3%
cell viability (Calu-3 [2]; 100 nM): 114%
cell viability (Calu-3 [2]; 1000 nM): 107%
cell viability (Calu-3 [2]; 10000 nM): 88%
cell viability (HepG2 [3]; 1 nM): 91.9%
cell viability (HepG2 [3]; 10 nM): 96.5%
cell viability (HepG2 [3]; 100 nM): 94.5%
cell viability (HepG2 [3]; 1000 nM): 88.3%
cell viability (HepG2 [3]; 10000 nM): 65.2%
cell viability (U2OS [4]; 1 nM): 102%
cell viability (U2OS [4]; 10 nM): 100%
cell viability (U2OS [4]; 100 nM): 100%
cell viability (U2OS [4]; 1000 nM): 81%
cell viability (U2OS [4]; 10000 nM): 35.3%
cell viability (Vero E6 [5]; 1 nM): 97.4%
cell viability (Vero E6 [5]; 10 nM): 97.8%
cell viability (Vero E6 [5]; 100 nM): 96.5%
cell viability (Vero E6 [5]; 1000 nM): 98.5%
cell viability (Vero E6 [5]; 10000 nM): 69.2%
relative viability EC50 (Calu-3 [6]): > 10 µM
relative viability EC50 (U2OS [7]): 1.42 µM
drug sensitivity score (Caco-2 [8]): 1.3
drug sensitivity score (Calu-3 [9]): 0
drug sensitivity score (HepG2 [10]): 2.8
drug sensitivity score (U2OS [11]): 6.4
drug sensitivity score (Vero E6 [12]): 1.6

Cc1cc2c(F)c(Oc3ncnn4cc(OC[C@@H](C)OC(=O)[C@H](C)N)c(C)c34)ccc2[nH]1 [brivanib-alaninate]
cell viability (Caco-2 [1]; 1 nM): 91.8%
cell viability (Caco-2 [1]; 10 nM): 98.5%
cell viability (Caco-2 [1]; 100 nM): 88.2%
cell viability (Caco-2 [1]; 1000 nM): 101%
cell viability (Caco-2 [1]; 10000 nM): 86.3%
cell viability (Calu-3 [2]; 1 nM): 90.8%
cell viability (Calu-3 [2]; 10 nM): 103%
cell viability (Calu-3 [2]; 100 nM): 95.3%
cell viability (Calu-3 [2]; 1000 nM): 102%
cell viability (Calu-3 [2]; 10000 nM): 86.5%
cell viability (U2OS [4]; 1 nM): 94.2%
cell viability (U2OS [4]; 10 nM): 101%
cell viability (U2OS [4]; 100 nM): 92.5%
cell viability (U2OS [4]; 1000 nM): 101%
cell viability (U2OS [4]; 10000 nM): 73.1%
cell viability (Vero E6 [5]; 1 nM): 93.1%
cell viability (Vero E6 [5]; 10 nM): 96%
cell viability (Vero E6 [5]; 100 nM): 96.5%
cell viability (Vero E6 [5]; 1000 nM): 90.9%
cell viability (Vero E6 [5]; 10000 nM): 88.2%
relative viability EC50 (Caco-2 [13]): > 10 µM
relative viability EC50 (Calu-3 [6]): > 10 µM
relative viability EC50 (Vero E6 [14]): > 10 µM
drug sensitivity score (Caco-2 [8]): 0.1
drug sensitivity score (Calu-3 [9]): 0.1
drug sensitivity score (U2OS [11]): 1
drug sensitivity score (Vero E6 [12]): 0

O=C(/C=C/c1ccc(O)c(O)c1)c1ccc(O)cc1O [butein]
cell viability (Caco-2 [1]; 1 nM): 95.5%
cell viability (Caco-2 [1]; 10 nM): 103%
cell viability (Caco-2 [1]; 100 nM): 101%
cell viability (Caco-2 [1]; 1000 nM): 92%
cell viability (Caco-2 [1]; 10000 nM): 61.9%
cell viability (Calu-3 [2]; 1 nM): 100%
cell viability (Calu-3 [2]; 10 nM): 103%
cell viability (Calu-3 [2]; 100 nM): 97.2%
cell viability (Calu-3 [2]; 1000 nM): 112%
cell viability (Calu-3 [2]; 10000 nM): 92.7%
cell viability (HepG2 [3]; 1 nM): 99.3%
cell viability (HepG2 [3]; 10 nM): 103%
cell viability (HepG2 [3]; 100 nM): 104%
cell viability (HepG2 [3]; 1000 nM): 93.4%
cell viability (HepG2 [3]; 10000 nM): 58.4%
cell viability (U2OS [4]; 1 nM): 93.8%
cell viability (U2OS [4]; 10 nM): 101%
cell viability (U2OS [4]; 100 nM): 94.9%
cell viability (U2OS [4]; 1000 nM): 96.9%
cell viability (U2OS [4]; 10000 nM): 75.9%
cell viability (Vero E6 [5]; 1 nM): 103%
cell viability (Vero E6 [5]; 10 nM): 101%
cell viability (Vero E6 [5]; 100 nM): 102%
cell viability (Vero E6 [5]; 1000 nM): 99.6%
cell viability (Vero E6 [5]; 10000 nM): 101%
relative viability EC50 (Calu-3 [6]): > 10 µM
relative viability EC50 (U2OS [7]): > 10 µM
relative viability EC50 (Vero E6 [14]): > 10 µM
drug sensitivity score (Caco-2 [8]): 3.2
drug sensitivity score (Calu-3 [9]): 0
drug sensitivity score (HepG2 [10]): 3.2
drug sensitivity score (U2OS [11]): 1.4
drug sensitivity score (Vero E6 [12]): 0

C[N+](C)(C)CCOC(N)=O [carbachol]
cell viability (Caco-2 [1]; 1 nM): 93.6%
cell viability (Caco-2 [1]; 10 nM): 98.2%
cell viability (Caco-2 [1]; 100 nM): 106%
cell viability (Caco-2 [1]; 1000 nM): 99.1%
cell viability (Caco-2 [1]; 10000 nM): 106%
cell viability (Calu-3 [2]; 1 nM): 95%
cell viability (Calu-3 [2]; 10 nM): 102%
cell viability (Calu-3 [2]; 100 nM): 94%
cell viability (Calu-3 [2]; 1000 nM): 97.8%
cell viability (Calu-3 [2]; 10000 nM): 100%
cell viability (U2OS [4]; 1 nM): 107%
cell viability (U2OS [4]; 10 nM): 107%
cell viability (U2OS [4]; 100 nM): 98.3%
cell viability (U2OS [4]; 1000 nM): 103%
cell viability (U2OS [4]; 10000 nM): 98.3%
cell viability (Vero E6 [5]; 1 nM): 101%
cell viability (Vero E6 [5]; 10 nM): 98.4%
cell viability (Vero E6 [5]; 100 nM): 97.3%
cell viability (Vero E6 [5]; 1000 nM): 97.2%
cell viability (Vero E6 [5]; 10000 nM): 99%
relative viability EC50 (Caco-2 [13]): > 10 µM
relative viability EC50 (Calu-3 [6]): > 10 µM
relative viability EC50 (U2OS [7]): > 10 µM
relative viability EC50 (Vero E6 [14]): > 10 µM
drug sensitivity score (Caco-2 [8]): 0
drug sensitivity score (Calu-3 [9]): 0
drug sensitivity score (U2OS [11]): 0
drug sensitivity score (Vero E6 [12]): 0
